Reference: ChEMBL document CHEMBL5620356, “Sulfur-fluoride exchange (SuFEx)-enabled lead discovery of AChE inhibitors by fragment linking strategies” (Eur J Med Chem, 2023)
pIC50, pKi: −log10 of the molar value. The source made the active and inactive calls. No cut-off for these calls is given here.

Columns and labels:
Cholinesterase = Cholinesterase (Equus caballus, UniProt P81908); experiment: Inhibition of equine serum BuChE using butyrylthiocholine iodide as substrate preincubated for 20 mins followed by substrate addition and measured after 20 mins by DTNB reagent based Ellman's method; assay type: cell-free
Sequence of Cholinesterase (P81908 whole entry): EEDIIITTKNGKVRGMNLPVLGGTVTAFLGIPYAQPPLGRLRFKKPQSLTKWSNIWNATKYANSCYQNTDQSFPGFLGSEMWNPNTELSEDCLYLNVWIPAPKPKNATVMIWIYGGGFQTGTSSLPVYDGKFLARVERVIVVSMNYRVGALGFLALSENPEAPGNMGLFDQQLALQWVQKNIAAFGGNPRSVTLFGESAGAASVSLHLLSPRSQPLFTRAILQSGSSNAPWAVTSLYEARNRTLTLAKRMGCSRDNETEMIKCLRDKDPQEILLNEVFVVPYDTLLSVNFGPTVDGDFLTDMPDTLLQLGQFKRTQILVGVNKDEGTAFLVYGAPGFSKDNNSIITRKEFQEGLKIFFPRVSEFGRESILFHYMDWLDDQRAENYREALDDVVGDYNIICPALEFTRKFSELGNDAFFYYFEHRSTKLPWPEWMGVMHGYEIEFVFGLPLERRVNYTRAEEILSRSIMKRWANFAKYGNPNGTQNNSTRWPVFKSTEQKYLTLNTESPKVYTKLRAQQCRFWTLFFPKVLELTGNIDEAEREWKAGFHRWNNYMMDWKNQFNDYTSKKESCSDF

Acetylcholinesterase [1] = biological target: T1, Acetylcholinesterase (Electrophorus electricus, UniProt O42275); experiment: Inhibition of electric eel AChE using acetylthiocholine iodide as substrate preincubated for 20 mins followed by substrate addition and measured after 20 mins by DTNB reagent based Ellman's method
T1 sequence (O42275 whole entry): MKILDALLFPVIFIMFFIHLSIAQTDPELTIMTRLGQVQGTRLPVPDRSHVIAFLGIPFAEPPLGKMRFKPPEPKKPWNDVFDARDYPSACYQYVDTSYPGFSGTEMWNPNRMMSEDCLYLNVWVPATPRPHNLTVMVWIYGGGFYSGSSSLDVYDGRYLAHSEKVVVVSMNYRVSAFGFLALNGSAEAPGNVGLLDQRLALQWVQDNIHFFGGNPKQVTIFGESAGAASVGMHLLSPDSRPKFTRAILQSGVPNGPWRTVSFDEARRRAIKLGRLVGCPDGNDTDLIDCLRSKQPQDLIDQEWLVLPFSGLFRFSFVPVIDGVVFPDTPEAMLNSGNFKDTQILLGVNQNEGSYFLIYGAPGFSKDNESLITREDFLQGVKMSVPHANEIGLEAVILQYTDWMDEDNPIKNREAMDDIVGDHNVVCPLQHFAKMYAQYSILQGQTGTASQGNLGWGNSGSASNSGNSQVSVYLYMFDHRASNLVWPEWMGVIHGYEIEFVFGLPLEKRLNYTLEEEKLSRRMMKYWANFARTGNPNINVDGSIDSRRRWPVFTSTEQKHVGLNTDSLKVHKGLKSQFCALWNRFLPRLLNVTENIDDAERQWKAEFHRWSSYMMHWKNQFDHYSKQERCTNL

Acetylcholinesterase [2] = biological target: T1, Acetylcholinesterase; experiment: Inhibition of electric eel AChE incubated overnight by two fold serial dilution method
Acetylcholinesterase [3] = biological target: T1, Acetylcholinesterase; experiment: Inhibition of electric eel AChE assessed as inhibition constant using acetylthiocholine iodide as substrate by Lineweaver-Burk plot analysis
PC-12 = experiment: Neuroprotective activity against H2O2-induced injury in rat PC12 cells assessed as increase in cell viability at 25 uM preincubated for 3 hrs followed by H2O2 addition and measured after 24 hrs by MTT assay relative to control; assay type: functional; details: time 27 hrs
[4] = Permeability of the compound in PBS at pH 7.4 by incubated for 18 hrs by […] assay based UV- spectroscopy; assay type: ADME; details: read-out: permeability
Mus musculus [5] = experiment: Neuroprotective activity against amyloid beta 1-42 peptide induced ICR mouse assessed as reduction in latency at 5 mg/kg,po administration; assay type: functional, organism-based
Mus musculus [6] = experiment: Neuroprotective activity against amyloid beta 1-42 peptide induced ICR mouse assessed as increase in number of neurons in hippocampus at 5 mg/kg,po administration by hematoxylin-eosin staining based microscopic analysis; assay type: functional, organism-based
Mus musculus [7] = experiment: Neuroprotective activity against amyloid beta 1-42 peptide induced ICR mouse assessed as decrease in cognitive function impairment at 5 mg/kg,po administration; assay type: functional, organism-based
[8] = biological target: Acetylcholinesterase (Electrophorus electricus) (UniProt O42275); experiment: Inhibition of electric eel AChE using acetylthiocholine iodide as substrate at 20 uM preincubated for 20 mins followed by substrate addition and measured after 20 mins by DTNB reagent based Ellman's method; details: time 40.0 min
Sequence of Acetylcholinesterase (Electrophorus electricus) (O42275 24-633 limits assumed): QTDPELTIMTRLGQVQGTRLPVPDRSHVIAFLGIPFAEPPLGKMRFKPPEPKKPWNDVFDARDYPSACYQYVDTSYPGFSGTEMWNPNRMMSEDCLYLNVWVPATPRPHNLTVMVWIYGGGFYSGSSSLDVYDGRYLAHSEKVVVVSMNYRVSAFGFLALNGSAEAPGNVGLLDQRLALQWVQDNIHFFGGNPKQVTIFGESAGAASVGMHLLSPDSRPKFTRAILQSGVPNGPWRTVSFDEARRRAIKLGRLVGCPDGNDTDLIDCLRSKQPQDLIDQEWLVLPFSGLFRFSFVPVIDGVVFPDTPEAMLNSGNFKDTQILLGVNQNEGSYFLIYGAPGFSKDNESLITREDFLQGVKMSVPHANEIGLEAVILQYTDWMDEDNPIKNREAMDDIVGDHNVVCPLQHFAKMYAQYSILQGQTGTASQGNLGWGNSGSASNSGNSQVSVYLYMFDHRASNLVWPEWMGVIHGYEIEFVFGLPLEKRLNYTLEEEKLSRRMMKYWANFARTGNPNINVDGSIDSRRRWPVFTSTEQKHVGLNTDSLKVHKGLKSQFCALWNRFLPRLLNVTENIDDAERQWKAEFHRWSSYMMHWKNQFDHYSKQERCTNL

[9] = biological target: Cholinesterase (Equus caballus) (UniProt P81908); experiment: Inhibition of equine serum BuChE using butyrylthiocholine iodide as substrate at 20 uM preincubated for 20 mins followed by substrate addition and measured after 20 mins by DTNB reagent based Ellman's method; assay type: cell-free; details: time 40.0 min
Sequence of Cholinesterase (Equus caballus) (P81908 whole entry): as the sequence (P81908 whole entry) above

Structure (SMILES)	pIC50 (Cholinesterase)	pIC50 (Acetylcholinesterase [1])	pIC50 (Acetylcholinesterase [2])	Papp at 18 h [4]	also measured
CC1=C[C@@H]2[C@@H](C[C@@]2(Br)S(=O)(=O)F)N(C)C1=O	4.97				
O=C1N[C@@H]2C[C@@H](S(=O)(=O)NCCC3CCN(Cc4ccccc4)CC3)[C@@H]2c2c(Cl)cccc21		7.03	7.00	13.1 ×10⁻⁶ cm/s	pKi (Acetylcholinesterase [3]): 6.89; Activity (PC-12): 77.2%; Activity (Mus musculus [5]): Active; Activity (Mus musculus [6]): Active; Activity (Mus musculus [7]): Active
CN1C(=O)C(F)=C[C@@H]2[C@H]1C[C@H]2S(=O)(=O)CC1CCN(Cc2ccccc2F)CC1		5.27	5.30		
CC(=O)[C@H]1CC[C@H]2[C@@H]3CCC4=CC(=O)CC[C@]4(C)[C@H]3CC[C@]12C [PROGESTERONE]				16.4 ×10⁻⁶ cm/s	
CN1C(=O)C(F)=C[C@@H]2[C@H]1C[C@H]2S(=O)(=O)F		4.73			
CCCNS(=O)(=O)[C@@H]1C[C@@H]2[C@H]1C=C(F)C(=O)N2C		5.17	5.25		
C[C@]12CC[C@H]3[C@@H](CCC4=CC(=O)CC[C@@]43C)[C@@H]1CC[C@@H]2O [TESTOSTERONE]				1.8 ×10⁻⁶ cm/s	
CN1C(=O)C(F)=C[C@@H]2[C@H]1C[C@@]2(Br)S(=O)(=O)F	4.85				
CN1C(=O)C(F)=C[C@@H]2[C@H]1C[C@H]2S(=O)(=O)NCCc1ccccc1F		4.97	4.90		
O=C1N[C@@H]2C[C@@H](S(=O)(=O)F)[C@@H]2c2c(Br)cccc21	5.48				inhibition [8]: Active; inhibition [9]: Active
CN1C(=O)C(F)=C[C@@H]2[C@H]1C[C@H]2S(=O)(=O)NCCc1ccc(F)cc1		5.34	5.47		
O=C1N[C@@H]2C[C@@H](S(=O)(=O)F)[C@@H]2c2c(Cl)cccc21	5.10	5.17			inhibition [8]: Active; inhibition [9]: Active
CN1C(=O)C(F)=C[C@@H]2[C@H]1C[C@H]2S(=O)(=O)N1CCC(Cc2ccc(F)cc2)CC1		5.10	5.08		
CN1C(C(=O)Nc2ccccn2)=C(O)c2ccccc2S1(=O)=O [PIROXICAM]				9.9 ×10⁻⁶ cm/s	
Cc1ccc2c(c1)[C@H]1[C@H](S(=O)(=O)F)C[C@H]1NC2=O	5.30				
CN1C(=O)c2ccccc2[C@@H]2[C@H]1C[C@H]2S(=O)(=O)F	4.92				
O=C1N[C@@H]2C[C@@H](S(=O)(=O)NCCC3CCN(Cc4ccccc4)CC3)[C@@H]2c2c(Br)cccc21		6.62	6.55	10 ×10⁻⁶ cm/s	
CN1C(=O)C(F)=C[C@@H]2[C@H]1C[C@H]2S(=O)(=O)N1CCOCC1		5.89	5.74		
CN1C(=O)C(F)=C[C@@H]2[C@H]1C[C@H]2S(=O)(=O)NCCC1CCN(Cc2ccccc2)CC1		6.42	6.47	12.3 ×10⁻⁶ cm/s	
